Source: ChEMBL document CHEMBL1201862, “PubChem BioAssay data set” (2004)
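Interpolation was linear, between the two tested concentrations surrounding the appropriate level; five concentrations were tested over 48 hours in 96-well plates. GI50 marks 50% less growth.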 The source made the active and inactive calls. No stated cut-off is given here; in the data, active = GI50 up to about 1.1 µM and inactive = higher.

Experiments:
Assay in all cases: growth of human tumour cells (NCI), 48 h
CAKI-1 = system: CAKI-1
COLO 205 = system: COLO 205
HCT-116 = system: HCT-116
HCT-15 = system: HCT-15
MCF7 = system: MCF7
MDA-N = system: MDA-N
NCI-H23 = system: NCI-H23
NCI-H460 = system: NCI-H460
NCI/ADR-RES = system: NCI/ADR-RES
OVCAR-5 = system: OVCAR-5
OVCAR-8 = system: OVCAR-8
RPMI-8226 = system: RPMI-8226
SF-268 = system: SF-268
SK-MEL-2 = system: SK-MEL-2
SK-MEL-5 = system: SK-MEL-5
SK-OV-3 = system: SK-OV-3
SW-620 = system: SW-620
CCRF-CEM = system: CCRF-CEM
LOX IMVI = system: LOX IMVI
NCI-H226 = system: NCI-H226

Compound | GI50 (CAKI-1) | GI50 (COLO 205) | GI50 (HCT-116) | GI50 (HCT-15) [µM] | GI50 (MCF7) | GI50 (MDA-N) | GI50 (NCI-H23) | GI50 (NCI-H460) | GI50 (NCI/ADR-RES) | GI50 (OVCAR-5) | GI50 (OVCAR-8) | GI50 (RPMI-8226) | GI50 (SF-268) | GI50 (SK-MEL-2) | GI50 (SK-MEL-5) | GI50 (SK-OV-3) | GI50 (SW-620) | GI50 (CCRF-CEM) | GI50 (LOX IMVI) | GI50 (NCI-H226)
C/C=C1/CC(C(=O)OC)N(C(=O)OCc2ccccc2)C1=S (stereo not drawn) | > 100 µM (inactive) | > 100 µM (inactive) | > 100 µM (inactive) | > 100 | > 100 µM (inactive) | > 100 µM (inactive) | > 100 µM (inactive) | 12.3 µM (inactive) | > 100 µM (inactive) | > 100 µM (inactive) | > 100 µM (inactive) | > 100 µM (inactive) | > 100 µM (inactive) | > 100 µM (inactive) | > 100 µM (inactive) | > 100 µM (inactive) | > 100 µM (inactive) | – | – | –
COC(=O)c1cccc2cccc(C(=O)Nc3ccc(Cl)cc3)c12 | > 100 µM (inactive) | 0.977 µM (active) | > 35.1 µM (inactive) | > 35.2 | – | – | 12.7 µM (inactive) | 10.3 µM (inactive) | – | > 86.9 µM (inactive) | > 79.8 µM (inactive) | 2.09 µM (inactive) | > 68.7 µM (inactive) | 1.84 µM (inactive) | 0.336 µM (active) | > 100 µM (inactive) | 11.4 µM (inactive) | 2.26 µM (inactive) | 0.664 µM (active) | > 100 µM (inactive)
O=CC1C(Cl)=Nc2nc3ccccc3n2C1c1ccccc1 (stereo not drawn) | 21.4 µM (inactive) | 19.2 µM (inactive) | 22.1 µM (inactive) | 16.2 | 20.4 µM (inactive) | – | 23.4 µM (inactive) | 55.2 µM (inactive) | 24 µM (inactive) | 23.2 µM (inactive) | 21.4 µM (inactive) | 14 µM (inactive) | 16.8 µM (inactive) | 12 µM (inactive) | 19.6 µM (inactive) | – | 19.4 µM (inactive) | 12.4 µM (inactive) | 15.5 µM (inactive) | 20.2 µM (inactive)
CCOC(=O)N/N=C(\Cc1ccc([N+](=O)[O-])cc1)OCC | – | > 100 µM (inactive) | > 100 µM (inactive) | > 100 | > 100 µM (inactive) | > 100 µM (inactive) | > 100 µM (inactive) | – | > 100 µM (inactive) | > 100 µM (inactive) | > 100 µM (inactive) | > 100 µM (inactive) | > 100 µM (inactive) | > 100 µM (inactive) | > 100 µM (inactive) | > 100 µM (inactive) | > 100 µM (inactive) | > 100 µM (inactive) | > 100 µM (inactive) | –
O=Cc1cc(C(=O)OCc2ccccc2)n(S(=O)(=O)c2ccccc2)c1 | 29.4 µM (inactive) | 26.1 µM (inactive) | 7.5 µM (inactive) | 11.1 | 11.7 µM (inactive) | 5.31 µM (inactive) | 20.6 µM (inactive) | 23.7 µM (inactive) | 31 µM (inactive) | 18.6 µM (inactive) | 31.9 µM (inactive) | – | 21.1 µM (inactive) | 16.8 µM (inactive) | 4.84 µM (inactive) | 21.6 µM (inactive) | – | 8.07 µM (inactive) | 10.3 µM (inactive) | –
Cc1cc(NS(=O)(=O)c2ccc(NC(=O)c3cccc4c(N)c5ccccc5nc34)cc2)no1 | 34.8 µM (inactive) | 22.6 µM (inactive) | 14.5 µM (inactive) | 33 | – | – | 21.8 µM (inactive) | 32.9 µM (inactive) | – | 28.8 µM (inactive) | 21.8 µM (inactive) | 24 µM (inactive) | 21 µM (inactive) | 18.7 µM (inactive) | > 10 µM (inactive) | 32.5 µM (inactive) | 30 µM (inactive) | 21.4 µM (inactive) | 23.4 µM (inactive) | 17.7 µM (inactive)
C1CSCCSS[C@@H]2CCCCC2SC1 (stereo partly drawn) | – | > 100 µM (inactive) | 81.8 µM (inactive) | > 100 | > 100 µM (inactive) | > 100 µM (inactive) | > 100 µM (inactive) | > 100 µM (inactive) | > 100 µM (inactive) | > 100 µM (inactive) | > 100 µM (inactive) | – | > 100 µM (inactive) | – | > 100 µM (inactive) | > 100 µM (inactive) | > 100 µM (inactive) | > 100 µM (inactive) | > 100 µM (inactive) | –
COc1ccc([C@@]23OC[C@@H]4[C@@H](OC[C@@H]42)c2cc(OC)c(OC)cc23)cc1OC | > 100 µM (inactive) | > 100 µM (inactive) | > 100 µM (inactive) | > 100 | > 100 µM (inactive) | – | > 100 µM (inactive) | > 100 µM (inactive) | > 100 µM (inactive) | > 100 µM (inactive) | – | > 100 µM (inactive) | – | > 100 µM (inactive) | > 100 µM (inactive) | > 100 µM (inactive) | > 100 µM (inactive) | – | > 100 µM (inactive) | > 100 µM (inactive)
CN(C)c1ccc([S+]([O-])Nc2ccccc2)cc1 (stereo not drawn) | – | 24.6 µM (inactive) | 26.6 µM (inactive) | 11.6 | 29.4 µM (inactive) | – | 45.7 µM (inactive) | 27.5 µM (inactive) | 22.1 µM (inactive) | > 100 µM (inactive) | 30.5 µM (inactive) | 27.5 µM (inactive) | 45.6 µM (inactive) | 35.8 µM (inactive) | 11.9 µM (inactive) | – | 51.2 µM (inactive) | > 100 µM (inactive) | 38.9 µM (inactive) | 38.4 µM (inactive)
COc1nc(=O)cc(N)n1C1OC(CO)C(O)C1O (stereo not drawn) | > 100 µM (inactive) | > 100 µM (inactive) | > 100 µM (inactive) | > 100 | – | – | > 100 µM (inactive) | > 100 µM (inactive) | – | > 100 µM (inactive) | > 100 µM (inactive) | > 100 µM (inactive) | > 100 µM (inactive) | > 100 µM (inactive) | > 100 µM (inactive) | > 100 µM (inactive) | > 100 µM (inactive) | > 100 µM (inactive) | > 100 µM (inactive) | > 100 µM (inactive)
Cc1ccccc1NC(=O)C(=O)C(C#N)c1ccc(Cl)cc1 (stereo not drawn) | > 100 µM (inactive) | 31.3 µM (inactive) | 34 µM (inactive) | 18.7 | – | – | 56.5 µM (inactive) | 21.3 µM (inactive) | – | 54 µM (inactive) | 46.6 µM (inactive) | 22.6 µM (inactive) | 69.8 µM (inactive) | 56.5 µM (inactive) | 41.8 µM (inactive) | > 100 µM (inactive) | 15.4 µM (inactive) | 64 µM (inactive) | 17.3 µM (inactive) | 78.5 µM (inactive)
C/C(CC(=O)Nc1cccc(C)c1C)=N\NC(N)=S | > 100 µM (inactive) | > 100 µM (inactive) | 88.7 µM (inactive) | 41.8 | – | – | > 100 µM (inactive) | > 100 µM (inactive) | – | > 100 µM (inactive) | > 100 µM (inactive) | 40.8 µM (inactive) | > 100 µM (inactive) | > 100 µM (inactive) | > 100 µM (inactive) | > 100 µM (inactive) | – | 74.3 µM (inactive) | > 100 µM (inactive) | > 100 µM (inactive)
N#CC(=N)c1ncn(CCO)c1NC(=O)C(F)(F)F | > 100 µM (inactive) | > 100 µM (inactive) | > 100 µM (inactive) | > 100 | – | > 100 µM (inactive) | > 100 µM (inactive) | > 100 µM (inactive) | > 100 µM (inactive) | > 100 µM (inactive) | > 100 µM (inactive) | > 100 µM (inactive) | > 100 µM (inactive) | > 100 µM (inactive) | > 100 µM (inactive) | > 100 µM (inactive) | > 100 µM (inactive) | > 100 µM (inactive) | > 100 µM (inactive) | > 100 µM (inactive)
Cn1c(=O)c2c(nc3n2CCC(=O)N3CCCCl)n(C)c1=O | – | > 100 µM (inactive) | > 100 µM (inactive) | > 100 | – | > 100 µM (inactive) | > 100 µM (inactive) | > 100 µM (inactive) | > 100 µM (inactive) | > 100 µM (inactive) | > 100 µM (inactive) | > 100 µM (inactive) | > 100 µM (inactive) | > 100 µM (inactive) | > 100 µM (inactive) | > 100 µM (inactive) | > 100 µM (inactive) | > 100 µM (inactive) | > 100 µM (inactive) | > 100 µM (inactive)
NC1=C2C(Br)=CN([C@@H]3O[C@H](CO)[C@@H](O)[C@@H]3O)C2C(=O)N=N1 (stereo partly drawn) | 0.396 µM (active) | 7.93 µM (inactive) | 1.82 µM (inactive) | 1.25 | – | – | 5.58 µM (inactive) | 1.49 µM (inactive) | – | 2.28 µM (inactive) | 0.577 µM (active) | 1.94 µM (inactive) | 9.51 µM (inactive) | 14.8 µM (inactive) | 11.3 µM (inactive) | 30.5 µM (inactive) | 1.15 µM (inactive) | 0.526 µM (active) | 1.03 µM (active) | 18.2 µM (inactive)
COc1cc2c3c(n(C)c(=O)c2cc1OC)-c1cc2c(cc1/C3=C\CCCCl)OCO2 | 25.9 µM (inactive) | 32.9 µM (inactive) | – | > 100 | 42 µM (inactive) | > 100 µM (inactive) | 19.9 µM (inactive) | 43.8 µM (inactive) | 46.8 µM (inactive) | > 100 µM (inactive) | 49.4 µM (inactive) | – | 43.6 µM (inactive) | 25.5 µM (inactive) | 25.6 µM (inactive) | 23 µM (inactive) | > 100 µM (inactive) | 8.95 µM (inactive) | 39 µM (inactive) | –
